Results from ChEMBL document CHEMBL5725466, “N-cyanomethylamides as inhibitors of janus kinase” (2017).

Legend:
[1] = target: Tyrosine-protein kinase JAK1 (Homo sapiens, UniProt P23458); test: (§1) In Vitro Assay: NCEs were screened using in vitro JAK (1, 2 and 3) kinase assay on ADP Glo platform (Promega). Fixed amount of recombinant purified human JAK (25 ng of JAK1 and 10 ng of JAK2 and JAK3 per reaction, from Life Technologies Ltd) were incubated with increasing concentration of NCEs in 1× kinase reaction buffer (40 mM Tris-Cl, pH7.5, 20 mM MgCl2, 0.1 mg/ml BSA and 50 μM DTT). Enzymatic reaction was initiated by adding a substrate cocktail containing 50 μM of ATP (final concentration) and 5 μg for JAK1 and 2.5 μg for JAK2 and JAK3 of polyGln4Tyr1 (Signal Chem) in total 25 μl of reaction in 96 well plate. The reaction was incubated at room temperature for 1 hr.After 1 hr of incubation equal volume (25 μl per reaction) of ADP Glo was added and incubated at room temperature for 40 min.This was followed by addition of kinase detection reagent (50 μl per reaction) and incubation at room temperature for 30 min. Finally, plate was read for luminescence at an integration time of 500 millisecond per well.
Tyrosine-protein kinase JAK1, sequence (P23458 whole entry): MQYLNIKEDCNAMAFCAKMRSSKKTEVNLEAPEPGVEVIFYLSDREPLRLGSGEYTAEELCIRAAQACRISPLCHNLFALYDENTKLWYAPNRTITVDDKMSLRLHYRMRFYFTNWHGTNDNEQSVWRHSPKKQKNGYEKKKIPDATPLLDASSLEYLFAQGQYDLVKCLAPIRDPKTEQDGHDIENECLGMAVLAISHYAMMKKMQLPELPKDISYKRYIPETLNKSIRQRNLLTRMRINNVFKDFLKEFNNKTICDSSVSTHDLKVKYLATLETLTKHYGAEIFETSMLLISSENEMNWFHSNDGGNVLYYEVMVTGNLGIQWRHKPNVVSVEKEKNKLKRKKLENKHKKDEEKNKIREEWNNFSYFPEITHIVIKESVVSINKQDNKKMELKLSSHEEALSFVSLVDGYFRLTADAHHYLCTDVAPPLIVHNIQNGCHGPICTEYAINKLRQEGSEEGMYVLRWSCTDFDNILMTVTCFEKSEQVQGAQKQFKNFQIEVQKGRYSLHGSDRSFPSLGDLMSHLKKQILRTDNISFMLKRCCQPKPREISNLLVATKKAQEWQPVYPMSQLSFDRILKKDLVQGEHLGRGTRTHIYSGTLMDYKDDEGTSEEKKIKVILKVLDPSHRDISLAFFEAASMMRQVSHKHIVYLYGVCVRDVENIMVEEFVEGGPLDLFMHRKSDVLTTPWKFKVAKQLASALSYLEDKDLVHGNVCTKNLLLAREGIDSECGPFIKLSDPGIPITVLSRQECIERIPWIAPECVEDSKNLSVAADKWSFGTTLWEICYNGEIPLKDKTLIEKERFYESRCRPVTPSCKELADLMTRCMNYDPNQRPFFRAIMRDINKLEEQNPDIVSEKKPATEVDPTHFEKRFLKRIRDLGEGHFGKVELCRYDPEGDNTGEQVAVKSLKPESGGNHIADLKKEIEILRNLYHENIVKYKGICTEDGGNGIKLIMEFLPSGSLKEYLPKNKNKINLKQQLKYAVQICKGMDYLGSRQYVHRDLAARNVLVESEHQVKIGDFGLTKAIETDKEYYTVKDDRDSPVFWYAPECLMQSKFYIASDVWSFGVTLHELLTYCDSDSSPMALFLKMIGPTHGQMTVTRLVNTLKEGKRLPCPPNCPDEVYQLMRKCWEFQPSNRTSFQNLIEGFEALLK

[2] = target: T1, Tyrosine-protein kinase JAK3 (Homo sapiens, UniProt P52333); test: as §1
T1 sequence (P52333 whole entry): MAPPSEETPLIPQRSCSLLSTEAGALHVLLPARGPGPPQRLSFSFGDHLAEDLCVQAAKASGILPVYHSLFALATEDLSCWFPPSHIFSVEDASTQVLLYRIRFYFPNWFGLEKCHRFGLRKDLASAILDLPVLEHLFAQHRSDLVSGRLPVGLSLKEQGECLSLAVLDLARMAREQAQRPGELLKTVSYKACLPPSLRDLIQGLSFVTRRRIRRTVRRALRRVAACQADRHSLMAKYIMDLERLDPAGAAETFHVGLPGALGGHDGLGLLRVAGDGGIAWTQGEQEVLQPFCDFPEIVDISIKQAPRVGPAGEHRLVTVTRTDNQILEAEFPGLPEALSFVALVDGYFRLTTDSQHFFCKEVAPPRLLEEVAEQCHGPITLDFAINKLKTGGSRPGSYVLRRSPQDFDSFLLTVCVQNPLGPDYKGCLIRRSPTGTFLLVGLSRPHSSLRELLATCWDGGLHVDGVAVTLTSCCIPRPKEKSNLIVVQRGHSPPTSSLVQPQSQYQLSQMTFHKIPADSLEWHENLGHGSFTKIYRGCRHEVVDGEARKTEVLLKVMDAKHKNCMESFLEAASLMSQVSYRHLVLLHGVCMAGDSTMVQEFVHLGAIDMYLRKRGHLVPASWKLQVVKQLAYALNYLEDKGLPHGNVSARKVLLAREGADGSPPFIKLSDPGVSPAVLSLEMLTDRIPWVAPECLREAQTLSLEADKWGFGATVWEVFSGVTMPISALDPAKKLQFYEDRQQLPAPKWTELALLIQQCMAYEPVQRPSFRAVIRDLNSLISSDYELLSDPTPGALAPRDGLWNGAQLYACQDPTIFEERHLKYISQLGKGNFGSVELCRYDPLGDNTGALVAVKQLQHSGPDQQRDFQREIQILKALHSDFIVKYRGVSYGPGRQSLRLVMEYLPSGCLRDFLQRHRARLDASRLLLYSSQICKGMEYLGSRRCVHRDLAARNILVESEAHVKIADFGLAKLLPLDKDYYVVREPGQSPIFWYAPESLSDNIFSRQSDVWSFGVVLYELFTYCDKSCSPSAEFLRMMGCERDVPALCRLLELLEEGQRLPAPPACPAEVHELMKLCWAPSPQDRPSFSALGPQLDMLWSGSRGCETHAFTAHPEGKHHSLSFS

[3] = target: Tyrosine-protein kinase JAK2 (Homo sapiens, UniProt O60674); test: as §1
Tyrosine-protein kinase JAK2, sequence (O60674 whole entry): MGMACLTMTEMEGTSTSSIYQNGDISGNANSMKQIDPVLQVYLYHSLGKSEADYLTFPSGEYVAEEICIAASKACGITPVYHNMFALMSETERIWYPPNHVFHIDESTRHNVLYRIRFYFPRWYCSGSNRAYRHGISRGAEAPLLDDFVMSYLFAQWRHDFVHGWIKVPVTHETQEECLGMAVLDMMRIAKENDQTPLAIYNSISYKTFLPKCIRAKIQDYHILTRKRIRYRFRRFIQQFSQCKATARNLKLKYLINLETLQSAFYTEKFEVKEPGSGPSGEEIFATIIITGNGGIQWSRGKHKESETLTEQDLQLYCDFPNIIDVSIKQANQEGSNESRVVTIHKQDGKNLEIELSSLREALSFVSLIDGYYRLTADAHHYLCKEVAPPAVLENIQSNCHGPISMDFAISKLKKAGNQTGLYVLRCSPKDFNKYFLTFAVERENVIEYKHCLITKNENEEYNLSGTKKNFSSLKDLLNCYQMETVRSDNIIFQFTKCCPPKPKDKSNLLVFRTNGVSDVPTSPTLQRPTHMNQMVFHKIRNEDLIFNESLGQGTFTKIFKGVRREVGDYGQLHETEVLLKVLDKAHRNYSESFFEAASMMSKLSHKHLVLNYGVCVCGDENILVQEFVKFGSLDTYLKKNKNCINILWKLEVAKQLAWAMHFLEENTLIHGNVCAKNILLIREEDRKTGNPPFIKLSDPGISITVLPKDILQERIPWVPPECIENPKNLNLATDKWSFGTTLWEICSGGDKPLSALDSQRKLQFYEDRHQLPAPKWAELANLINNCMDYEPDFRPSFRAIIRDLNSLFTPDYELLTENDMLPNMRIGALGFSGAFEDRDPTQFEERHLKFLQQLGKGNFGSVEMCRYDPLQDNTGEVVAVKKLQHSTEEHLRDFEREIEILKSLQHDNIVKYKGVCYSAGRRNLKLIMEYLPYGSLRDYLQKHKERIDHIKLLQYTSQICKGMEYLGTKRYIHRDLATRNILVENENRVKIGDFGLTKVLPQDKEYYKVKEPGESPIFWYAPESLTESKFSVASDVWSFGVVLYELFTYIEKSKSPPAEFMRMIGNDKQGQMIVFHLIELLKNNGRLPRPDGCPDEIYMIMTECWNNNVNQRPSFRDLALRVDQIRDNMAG

IC50 [1] | IC50 [2] | IC50 [3] | Compound
11.7 nM | 62.3 nM | 6.6 nM | N#CCNC(=O)c1ccc(-c2ccnc(Nc3ccc(N4CCC(N5CCOCC5)CC4)cc3)n2)cc1
6.7 nM | 16.6 nM | 4.9 nM | N#CCNC(=O)c1ccc(-c2nc(Nc3ccc(N4CCC(N5CCOCC5)CC4)cc3)ncc2F)cc1
13 nM | 124 nM | 20 nM | N#CCNC(=O)c1ccc(-c2ccnc(Nc3ccc(N4CCC(C5=NCCN5)CC4)cc3)n2)cc1
